Read-outs that look alike come from different tables or passages of the source.
Test system: A549 cells
Assay: Cell proliferation assay (CellTiter-Glo), cells with K-Ras G12S mutation
Type: cell-based
Details: Homo sapiens, read-out: Inhibition of A549 Cells (IC50)
Method: A549 (ATCC CRL-185) and LS123 (ATCC CRL-255) cell lines comprise a G12S mutation and can be used to assess Ras cellular signaling in vitro, e.g., in response to treatment with a compound described herein. A549 culture medium is prepared with RPMI-1640 and 10% heat-inactivated FBS. LS123 culture medium is prepared with RPMI-1640 and 10% heat-inactivated FBS. A CellTiter-Glo (CTG) luminescent based assay (Promega) is used to assess growth of the cells, as a measurement of the ability of the compounds herein to inhibit Ras signaling in the cells. The cells (e.g., 800 per well) are seeded in their respective culture medium in standard tissue culture-treated 384-well format plates (Falcon #08-772-116) or ultra-low attachment surface 384-well format plates (S-Bio #MS-9384WZ). The day after plating, cells are treated with a dilution series (e.g., a 10 point 3-fold dilution series) of the compounds herein (e.g., approximately 40 μl final volume per well). Cell viability can be monitored (e.g., approximately 6 days later) according to the manufacturer's recommended instructions, where CellTiter-Glo reagent is added (e.g., approximately 10 μl), vigorously mixed, covered, and placed on a plate shaker (e.g., approximately for 20 min) to ensure sufficient cell lysis prior to assessment of luminescent signal. The IC50 values are determined using the four parameter fit. The resulting IC50 value is a measurement of the ability of the test compound to reduce cell growth of Ras-driven cells (e.g., tumor cell lines) in vitro and/or in vivo.

N#Cc1c(N)sc2c(F)ccc(-c3c(Cl)cc4c(N5CCC(N(C(=O)n6cncn6)C6CC6)C5)nc(OC[C@@]56CCCN5C[C@H](F)C6)nc4c3F)c12 (stereo partly drawn) [Compound 135, N-(1-(7-(2-amino-3-cyano-7-fluorobenzo[b]thiophen-4-yl)-6-chloro-8-fluoro-2-(((2R,7aS)-2-fluorotetrahydro-1H-pyrrolizin-7a(5H)-yl)methoxy)quinazolin-4-yl)pyrrolidin-3-yl)-N-cyclopropyl-1H-1,2,4-triazole-1-carboxamide]
IC50 (≤500 nM): ≤ 500 nM

C=CCN(C[C@@H]1CN(C(=O)n2cnc(F)n2)[C@@H]1C1(C)CC1)c1nc(OC[C@@]23CCCN2C[C@H](F)C3)nc2c(F)c(-c3ccc(F)c4sc(N)c(C#N)c34)c(Cl)cc12 [Compound 136, 4-(4-(allyl(((2S,3R)-1-(3-fluoro-1H-1,2,4-triazole-1-carbonyl)-2-(1-methylcyclopropyl)azetidin-3-yl)methyl)amino)-6-chloro-8-fluoro-2-(((2R,7aS)-2-fluorotetrahydro-1H-pyrrolizin-7a(5H)-yl)methoxy)quinazolin-7-yl)-2-amino-7-fluorobenzo[b]thiophene-3-carbonitrile]
IC50 (≤500 nM): ≤ 500 nM

CC(C)[C@H]1N(C(=O)n2cnc(Cl)n2)C[C@]12C[C@@H](CC#N)CN(c1nc(OC[C@@]34CCCN3C[C@H](F)C4)nc3c(F)c(-c4ccc(F)c5sc(N)c(C#N)c45)c(Cl)cc13)C2 [Compound 137, 2-amino-4-(6-chloro-4-((1R,4R,8S)-2-(3-chloro-1H-1,2,4-triazole-1-carbonyl)-8-(cyanomethyl)-1-isopropyl-2,6-diazaspiro[3.5]nonan-6-yl)-8-fluoro-2-(((2R,7aS)-2-fluorotetrahydro-1H-pyrrolizin-7a(5H)-yl)methoxy)quinazolin-7-yl)-7-fluorobenzo[b]thiophene-3-carbonitrile]
IC50 (≤500 nM): ≤ 500 nM

CC(C)[C@H]1N(C(=O)n2cnc(C(F)F)n2)C[C@@]12CN(c1nc(OC[C@@]34CCCN3C[C@H](F)C4)nc3c(F)c(-c4ccc(F)c5sc(N)c(C#N)c45)c(Cl)cc13)CCO2 [Compound 138, 2-amino-4-(6-chloro-4-((1R,4S)-2-(3-(difluoromethyl)-1H-1,2,4-triazole-1-carbonyl)-1-isopropyl-5-oxa-2,8-diazaspiro[3.5]nonan-8-yl)-8-fluoro-2-(((2R,7aS)-2-fluorotetrahydro-1H-pyrrolizin-7a(5H)-yl)methoxy)quinazolin-7-yl)-7-fluorobenzo[b]thiophene-3-carbonitrile]
IC50 (≤500 nM): ≤ 500 nM

CN(C(=O)n1cncn1)C1CN(c2nc(OC[C@@]34CCCN3C[C@H](F)C4)nc3c(F)c(-c4ccc(F)c5sc(N)c(C#N)c45)c(Cl)cc23)CC12CC2 (stereo partly drawn) [Compound 140, N-(5-(7-(2-amino-3-cyano-7-fluorobenzo[b]thiophen-4-yl)-6-chloro-8-fluoro-2-(((2R,7aS)-2-fluorotetrahydro-1H-pyrrolizin-7a(5H)-yl)methoxy)quinazolin-4-yl)-5-azaspiro[2.4]heptan-7-yl)-N-methyl-1H-1,2,4-triazole-1-carboxamide]
IC50 (500 nM to 5 μM (mixed units)): 500 to 5000 nM

CC(C)[C@H]1N(C(=O)n2cnc(F)n2)C[C@]12CCCCN(c1nc(OC[C@@]34CCCN3C[C@H](F)C4)nc3c(F)c(-c4ccc(F)c5sc(N)c(C#N)c45)c(Cl)cc13)C2 [Compound 141, 2-amino-4-(6-chloro-8-fluoro-4-((1R,4R)-2-(3-fluoro-1H-1,2,4-triazole-1-carbonyl)-1-isopropyl-2,6-diazaspiro[3.6]decan-6-yl)-2-(((2R,7aS)-2-fluorotetrahydro-1H-pyrrolizin-7a(5H)-yl)methoxy)quinazolin-7-yl)-7-fluorobenzo[b]thiophene-3-carbonitrile]
IC50 (≤500 nM): ≤ 500 nM

CC(C)[C@H]1N(C(=O)n2cnc(Cl)n2)C[C@]12CCCCN(c1nc(OC[C@@]34CCCN3C[C@H](F)C4)nc3c(F)c(-c4ccc(F)c5sc(N)c(C#N)c45)c(Cl)cc13)C2 [Compound 142, 2-amino-4-(6-chloro-4-((1R,4R)-2-(3-chloro-1H-1,2,4-triazole-1-carbonyl)-1-isopropyl-2,6-diazaspiro[3.6]decan-6-yl)-8-fluoro-2-(((2R,7aS)-2-fluorotetrahydro-1H-pyrrolizin-7a(5H)-yl)methoxy)quinazolin-7-yl)-7-fluorobenzo[b]thiophene-3-carbonitrile]
IC50 (≤500 nM): ≤ 500 nM

N#Cc1c(N)sc2c(F)ccc(-c3c(Cl)cc4c(N5CCC(N(C(=O)n6cnc(Cl)n6)C6CC6)C5)nc(OC[C@@]56CCCN5C[C@H](F)C6)nc4c3F)c12 (stereo partly drawn) [Compound 143, N-(1-(7-(2-amino-3-cyano-7-fluorobenzo[b]thiophen-4-yl)-6-chloro-8-fluoro-2-(((2R,7aS)-2-fluorotetrahydro-1H-pyrrolizin-7a(5H)-yl)methoxy)quinazolin-4-yl)pyrrolidin-3-yl)-3-chloro-N-cyclopropyl-1H-1,2,4-triazole-1-carboxamide]
IC50 (≤500 nM): ≤ 500 nM

CC(C)[C@@H]1[C@H](CN(C)c2nc(OC[C@@]34CCCN3C[C@H](F)C4)nc3c(F)c(-c4ccc(F)c5sc(N)c(C#N)c45)c(Cl)cc23)CN1C(=O)n1cnc(F)n1 [Compound 144, 2-amino-4-(6-chloro-8-fluoro-4-((((2R,3R)-1-(3-fluoro-1H-1,2,4-triazole-1-carbonyl)-2-isopropylazetidin-3-yl)methyl)(methyl)amino)-2-(((2R,7aS)-2-fluorotetrahydro-1H-pyrrolizin-7a(5H)-yl)methoxy)quinazolin-7-yl)-7-fluorobenzo[b]thiophene-3-carbonitrile]
IC50 (≤500 nM): ≤ 500 nM

N#CCCN(C(=O)n1cncn1)C1CCN(c2nc(OC[C@@]34CCCN3C[C@H](F)C4)nc3c(F)c(-c4ccc(F)c5sc(N)c(C#N)c45)c(Cl)cc23)C1 (stereo partly drawn) [Compound 145, N-(1-(7-(2-amino-3-cyano-7-fluorobenzo[b]thiophen-4-yl)-6-chloro-8-fluoro-2-(((2R,7aS)-2-fluorotetrahydro-1H-pyrrolizin-7a(5H)-yl)methoxy)quinazolin-4-yl)pyrrolidin-3-yl)-N-(2-cyanoethyl)-1H-1,2,4-triazole-1-carboxamide]
IC50 (500 nM to 5 μM (mixed units)): 500 to 5000 nM

C[C@H]1CC[C@]2(CN(C(=O)n3cnc(Cl)n3)[C@@H]2C2CCC2)CN1c1nc(OC[C@@]23CCCN2C[C@H](F)C3)nc2c(F)c(-c3ccc(F)c4sc(N)c(C#N)c34)c(Cl)cc12 [Compound 146, 2-amino-4-(6-chloro-4-((1R,4R,7S)-2-(3-chloro-1H-1,2,4-triazole-1-carbonyl)-1-cyclobutyl-7-methyl-2,6-diazaspiro[3.5]nonan-6-yl)-8-fluoro-2-(((2R,7aS)-2-fluorotetrahydro-1H-pyrrolizin-7a(5H)-yl)methoxy)quinazolin-7-yl)-7-fluorobenzo[b]thiophene-3-carbonitrile]
IC50 (≤500 nM): ≤ 500 nM

N#Cc1c(N)sc2c(F)ccc(-c3c(Cl)cc4c(N5CCCC[C@@]6(C5)CN(C(=O)n5cnc(Cl)n5)[C@@H]6C5CC5)nc(OC[C@@]56CCCN5C[C@H](F)C6)nc4c3F)c12 [Compound 147, 2-amino-4-(6-chloro-4-((1R,4R)-2-(3-chloro-1H-1,2,4-triazole-1-carbonyl)-1-cyclopropyl-2,6-diazaspiro[3.6]decan-6-yl)-8-fluoro-2-(((2R,7aS)-2-fluorotetrahydro-1H-pyrrolizin-7a(5H)-yl)methoxy)quinazolin-7-yl)-7-fluorobenzo[b]thiophene-3-carbonitrile]
IC50 (≤500 nM): ≤ 500 nM

From US20250381243A1, “HETEROCYCLES AND USES THEREOF” (Kumquat Biosciences Inc., priority 2022, published 2025)
